Laboratory results as given in PubChem BioAssay AID1963958 (Molecular Pharmacology Branch, DTP, NCI, 2024).

Tested on: MDA-MB-231 multicell spheroids, viability
Experiment: Anticancer human tumor MDA-MB-231 cell line growth inhibition [PI3K];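 note: spheroids exposed to agents for seven days before reading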;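 for viability, T/C: percent of vehicle control luminescence with DMSO treated spheroids as 100%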
Settings: for IC50: curve of first compound; for viability, T/C: stronger effect = lower value
Excerpt: Combinatorial screen of targeted agents with the PI3K inhibitors inavolisib, alpelisib, duvelisib, and copanlisib in multi-cell type tumor spheroids
A high-throughput screen of multi-cell type tumor spheroids was designed to identify active combinations of targeted small molecules and PI3K pathway inhibitors. Complex spheroids include a stromal component modeled by human endothelial cells (HUVEC) and fibroblasts modeled by human mesenchymal stem cells (MSCs). The concentration ranges selected for each drug and investigational agent were based upon clinically achievable concentrations if the clinical Cmax of the agent was known.
Compounds. The drugs and investigational agents: inavolisib (NSC800729), alpelisib (NSC765974), duvelisib (NSC772469), copanlisib (NSC816437), ipatasertib (NSC767898), afuresertib (NSC778305), talazoparib (NSC767125), sapanisertib (NSC764658), selumetinib (NSC741078), tovorafenib (DAY101, NSC766906), vemurafenib (NSC761431), ravoxertinib (NSC781343), sotorasib (NSC818433), MRTX1133 (NSC 836407), abemaciclib (NSC 768073), palbociclib (NSC758247), venetoclax (NSC 766270), SY5609 (NSC837396), enzalutamide (NSC755605), and darolutamide (NSC825331), were obtained from the National Cancer Institute (NCI) Developmental Therapeutics Program Chemical Repository. The FDA-approved anticancer drug set is available from the NCI Developmental Therapeutics Program. […] The stock solutions were prepared in dimethyl sulfoxide (DMSO, Sigma-Aldrich, St. Louis, MO, cat. D2650) at 800-fold the tested concentration and stored at -70 degrees C prior to their use. All drugs and investigational agents were tested over a range starting from a high concentration at or near the clinical Cmax and decreasing in half-log increments. If the clinical Cmax for an agent had not been determined, the highest concentration tested was 10 microM.
Cell Culture. All cells were maintained in an incubator at 37 degrees C and 5% CO2 with 95% humidity. The PDC lines were cultured according to standard operating procedures established by the NCI PDMR (https://pdmr.cancer.gov/sops/default.htm). All PDCs were thawed and cultured in Matrigel-coated flasks prepared with a working solution of 1X Ham's F-12 nutrient mix, without supplementation (Invitrogen, Waltham, MA, cat. 11765054), 100 U/mL penicillin-streptomycin (Invitrogen, cat. 15140122), and 2.5% Matrigel (Corning Inc., Corning, NY, cat. 354248) for the first three passages. The 354836-022-R-J1-PDC, 475296-252-R-J1-PDC, and 997726-040-R-J2-PDC lines were cultured in 6A media, which includes advanced DMEM/F-12 (Thermo Fisher Scientific, cat. 12634028), 10 mM HEPES (Thermo Fisher Scientific, cat. 15630080), 1X GlutaMAX supplement (Thermo Fisher Scientific, cat. 35050061), 0.1 mg/mL primocin (InvivoGen, San Diego, CA, cat. ant-pm-2), 10% defined fetal bovine serum, heat inactivated (HyClone Laboratories Inc., Logan, UT, cat. SH30070.03HI), 50% L-WRN conditioned media (ATCC, cat. CRL-3276), 1.25 mM N-Acetyl-L-cysteine (Sigma-Aldrich, cat. A9165), 10 mM nicotinamide (Sigma-Aldrich, cat. N0636), 1X B-27 supplement (Thermo Fisher Scientific, cat. 17504044), 1X N-2 supplement (Thermo Fisher Scientific, cat. 17502048), and 10 microM Y-27632 dihydrochloride (Tocris Bioscience, Bristol, United Kingdom, cat. 1254). The 624824-186-R-J2-PDC line was cultured in 6C/Colon 1B media, which includes all 6A media components plus 50 ng/mL human EGF recombinant protein (Thermo Fisher Scientific, cat. PHG0311). […]

**Q.** What does the source list for `CC(Cn1ccc(-c2ccc(C#N)c(Cl)c2)n1)NC(=O)c1cc(C(C)O)[nH]n1` (configuration not stated) + CC(Nc1ccc2c(c1)OCCn1cc(N3C(=O)OCC3C(F)F)nc1-2)C(N)=O?
**A.** IC50 (second compound 0.00316 µM): > 10 µM; IC50 (second compound 0.01 µM): > 10 µM; IC50 (second compound 0.0316 µM): > 10 µM; IC50 (second compound 0.1 µM): > 10 µM; IC50 (second compound 0.316 µM): > 10 µM; IC50 (second compound 1 µM): > 10 µM; viability, T/C (second compound 0.00316 µM, first compound 0.0316 µM): 102%; viability, T/C (second compound 0.00316 µM, first compound 0.1 µM): 95.6%; viability, T/C (second compound 0.00316 µM, first compound 0.316 µM): 104%; viability, T/C (second compound 0.00316 µM, first compound 1 µM): 95%; viability, T/C (second compound 0.00316 µM, first compound 3.16 µM): 96.5%; viability, T/C (second compound 0.00316 µM, first compound 10 µM): 88.1%; viability, T/C (second compound 0.01 µM, first compound 0.0316 µM): 96%; viability, T/C (second compound 0.01 µM, first compound 0.1 µM): 97.5%; viability, T/C (second compound 0.01 µM, first compound 0.316 µM): 91.8%; viability, T/C (second compound 0.01 µM, first compound 1 µM): 94.6%; viability, T/C (second compound 0.01 µM, first compound 3.16 µM): 84.4%; viability, T/C (second compound 0.01 µM, first compound 10 µM): 77%; viability, T/C (second compound 0.0316 µM, first compound 0.0316 µM): 83.2%; viability, T/C (second compound 0.0316 µM, first compound 0.1 µM): 81.7%; viability, T/C (second compound 0.0316 µM, first compound 0.316 µM): 82.4%; viability, T/C (second compound 0.0316 µM, first compound 1 µM): 77%; viability, T/C (second compound 0.0316 µM, first compound 3.16 µM): 74.3%; viability, T/C (second compound 0.0316 µM, first compound 10 µM): 64%; viability, T/C (second compound 0.1 µM, first compound 0.0316 µM): 80.1%; viability, T/C (second compound 0.1 µM, first compound 0.1 µM): 69.6%; viability, T/C (second compound 0.1 µM, first compound 0.316 µM): 72%; viability, T/C (second compound 0.1 µM, first compound 1 µM): 69.9%; viability, T/C (second compound 0.1 µM, first compound 3.16 µM): 64.8%; viability, T/C (second compound 0.1 µM, first compound 10 µM): 50.3%; viability, T/C (second compound 0.316 µM, first compound 0.0316 µM): 63.5%; viability, T/C (second compound 0.316 µM, first compound 0.1 µM): 63.3%; viability, T/C (second compound 0.316 µM, first compound 0.316 µM): 65.1%; viability, T/C (second compound 0.316 µM, first compound 1 µM): 61.2%; viability, T/C (second compound 0.316 µM, first compound 3.16 µM): 60.8%; viability, T/C (second compound 0.316 µM, first compound 10 µM): 53.6%; viability, T/C (second compound 1 µM, first compound 0.0316 µM): 66%; viability, T/C (second compound 1 µM, first compound 0.1 µM): 56.3%; viability, T/C (second compound 1 µM, first compound 0.316 µM): 64.5%; viability, T/C (second compound 1 µM, first compound 1 µM): 60.2%; viability, T/C (second compound 1 µM, first compound 3.16 µM): 56.1%; viability, T/C (second compound 1 µM, first compound 10 µM): 48.8%
